Assay [1] addresses T1, human EP3 receptor (hEP3, D isoform) (Homo sapiens, UniProt P43115).
T1 construct: expressed in transfected cells; host or cells: COS-7 cells, transient transfection with pcDNA3 (lipofectin); plasma membrane fraction
T1 sequence (P43115 1-374 isoform P43115-4): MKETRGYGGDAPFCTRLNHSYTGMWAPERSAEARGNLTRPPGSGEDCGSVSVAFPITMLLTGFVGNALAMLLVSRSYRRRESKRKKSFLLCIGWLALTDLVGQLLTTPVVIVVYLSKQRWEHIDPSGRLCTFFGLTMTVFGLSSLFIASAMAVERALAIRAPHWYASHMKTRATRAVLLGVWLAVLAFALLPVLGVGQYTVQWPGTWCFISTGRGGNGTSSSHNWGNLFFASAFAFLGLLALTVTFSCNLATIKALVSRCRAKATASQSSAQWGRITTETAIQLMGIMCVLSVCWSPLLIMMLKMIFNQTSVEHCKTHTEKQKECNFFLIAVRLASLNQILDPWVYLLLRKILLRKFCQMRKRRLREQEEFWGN
Description: Radioligand binding competition vs [3H]PGE2, human recombinant EP3 receptor. Conditions: [3H]PGE2 competition, plasma membranes of transfected cells (COS-7 transient; HEK-293 also named), 60 min 25° C. As for the experimental part: (§1) HEK-293 cells stably expressing the human or feline FP receptor, or EP1, EP2, EP3, or EP4 receptors were washed with TME buffer, scraped from the bottom of the flasks, and homogenized for 30 sec using a Brinkman PT 10/35 polytron. TME buffer was added to achieve a final 40 ml volume in the centrifuge tubes (the composition of TME is […]; ION HCl is added to achieve a pH of 7.4).
(§2) [^3H-] PGE2 (5 nM; specific activity 180 Ci mmol) was used as the radioligand for EP receptors. Binding studies employing EP1, EP2, EP3, EP4 were performed in duplicate in at least three separate experiments. A 200 μl assay volume was used. Incubations were for 60 min at 25° C. and were terminated by the addition of 4 ml of ice-cold 50 mM TRIS-HCl, followed by rapid filtration through Whatman GF/B filters and three additional 4 ml washes in a cell harvester (Brandel). Non-specific binding determined with 10^−5M of unlabeled PGE2,.
Human Recombinant EP3 and TP Receptors: Transient Transfectants.
Plasmids encoding the human EP3 (D isoform) or TP receptor were prepared by cloning the respective coding sequences into a pcDNA3 vector (Invitrogen). COS-7 cells were transfected with pcDNA3 containing cDNA encoding the EP3 or TP receptor by employing the lipofectin method, according to the manufacturers instructions (Gibco). For radioligand binding studies, cells were harvested two days after transfection.
Radioligand binding studies on plasma membrane fractions prepared from cells were performed as follows. Cells washed with TME buffer were scraped from the bottom of the plates and homogenized for 30 sec using a Brinkman PT 10/35 polytron. TME buffer was added as necessary to achieve a 40 ml volume in the centrifuge tubes. TME is comprised of 50 mM TRIS base, 10 mM MgCl2, 1 mM EDTA; pH 7.4 is achieved by adding 1 N HCl. The cell homogenate was centrifuged at 19,000 rpm for 20-25 min at 4° C. using a Beckman Ti-60 or T ? -70 rotor. The pellet was then resuspended in TME buffer to provide a final protein concentration of 1 mg/ml, as determined by Bio-Rad assay. Radioligand binding assays were performed in a 100 μl or 200 μl volume.
The binding of [^3H] PGE2 (specific activity 165 Ci/mmol) was determined in duplicate and, in at least 3 separate experiments. Incubations were for 60 min at 25° C. and were terminated by the addition of 4 ml of ice-cold 50 mM TRIS-HCl followed by rapid filtration through Whatman GF/B filters and three additional 4 ml washes in a cell harvester (Brandel). Competition studies were performed using a final concentration of 2.5 or 5 nM [H] PGE2 and non-specific binding was determined with 10^−5 M unlabelled PGE2.

The target of assay [2] is T2, human EP4 receptor (hEP4) (Homo sapiens, UniProt P35408).
T2 construct: expressed in transfected cells; plasma membrane fraction
T2 sequence (P35408 whole entry): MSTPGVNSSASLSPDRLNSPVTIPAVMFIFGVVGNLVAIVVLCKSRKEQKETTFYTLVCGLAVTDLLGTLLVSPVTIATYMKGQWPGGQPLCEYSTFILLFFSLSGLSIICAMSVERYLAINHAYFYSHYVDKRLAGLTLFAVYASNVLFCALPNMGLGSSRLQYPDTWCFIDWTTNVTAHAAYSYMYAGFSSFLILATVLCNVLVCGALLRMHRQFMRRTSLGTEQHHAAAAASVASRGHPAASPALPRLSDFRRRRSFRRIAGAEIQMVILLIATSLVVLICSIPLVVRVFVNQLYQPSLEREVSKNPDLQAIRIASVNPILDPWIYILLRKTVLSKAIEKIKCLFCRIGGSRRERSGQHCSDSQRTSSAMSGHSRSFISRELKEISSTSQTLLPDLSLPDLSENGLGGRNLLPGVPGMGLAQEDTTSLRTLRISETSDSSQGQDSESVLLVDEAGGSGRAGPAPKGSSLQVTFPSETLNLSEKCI
Description: Radioligand binding competition vs [3H]PGE2, human recombinant EP4 receptor. Conditions: [3H]PGE2 competition, plasma membranes of HEK-293 stable transfectants, 60 min 25° C. As for the experimental part:
Human Recombinant EP1, EP2, EP4, and FP Receptors: Stable Transfectants
as §1
The cell homogenate was centrifuged at 19000 r.p.m. for 20 min at 4° C. using a Beckman Ti-60 rotor. The resultant pellet was resuspended in TME buffer to give a final 1 mg/ml protein concentration, as determined by Biorad assay. Radioligand binding competition assays vs. [^3H-]17 -phenyl PGF2α (5 nM) were performed in a 100 μl volume for 60 min. Binding reactions were started by adding plasma membrane fraction. The reaction was terminated by the addition of 4 ml ice-cold TRIS-HCl buffer and rapid filtration through glass fiber GF/B filters using a Brandel cell harvester. The filters were washed 3 times with ice-cold buffer and oven dried for one hour. Non-specific binding was determined with 10 uM unlabeled 17 -phenyl PGF2α.
as §2
Plasmids encoding the human EP1, EP2, EP4, and FP receptors were prepared by cloning the respective coding sequences into the eukaryotic expression vector pCEP4 (Invitrogen). The pCEP4 vector contains an Epstein Barr virus (EBV) origin of replication, which permits episomal replication in primate cell lines expressing EBV nuclear antigen (EBNA-1). Similarly, competitive experiments were caried out using [3H]17-phenylPGF2α at 5 nM in the presence of test ligands at various concentrations. Also non-specific binding was, determined in the presence of excess unlabeled PGF2α (10^−5 M).
It also contains a hygromycin resistance gene that is used for eukaryotic selection. The cells employed for stable transfection were human embryonic kidney cells (HEK-293) that were transfected with and express the EBNA-1 protein. These HEK-293-EBNA cells (Invitrogen) were grown in medium containing Geneticin (G418) to maintain expression of the EBNA-1 protein. HEK-293 cells were grown in DMEM with 10% fetal bovine serum (FBS), 250 μg ml G418 (Life Technologies) and 200 μg ml^−1 gentamicin or penicillin/streptomycin.
For transfection, the cells were grown to 50-60% confluency on 10 cm plates. The plasmid pCEP4 incorporating cDNA inserts for the respective human prostanoid receptor (20 μg) was added to 500 μl of 250 mM CaCl2. HEPES buffered saline ×2 (2×HBS, 280 mM NaCl, 20 mM HEPES acid, 1.5 mM Na2 HPO4, pH 7.05-7.12) was then added dropwise to a total of […], with continuous vortexing at room temperature. After 30 min, 9 ml DMEM were added to the mixture. The DNA/DMEM/calcium phosphate mixture was then added to the cells, which had been previously rinsed with 10 ml PBS. The cells were then incubated for 5 hr at 37° C. in humidified 95% air/5% CO2. The calcium phosphate solution was then removed and the cells were treated with 10% glycerol in DMEM for 2 min. The glycerol solution was then replaced by DMEM with 10% FBS. The cells were incubated overnight and the medium was replaced by DMEM/10% FBS containing 250 μg ml^−1 G418 and penicillin/streptomycin. The following day hygromycin B was added to a final concentration of 200 μg ml^−1. […]

The structures appear in SMILES notation.

In general, IC50 refers to the concentration at which inhibition is half-maximal.

On to `COC(=O)CSCCCS[C@H]1C(=O)C[C@@H](O)[C@@H]1/C=C/C(O)Cc1ccc2ccccc2c1` (single isomer, unassigned) [Example 21H], for which the IC50 in assay [1] was > 10000 nM; in assay [2] it was 100 nM.

For `COC(=O)CSCCCS[C@H]1C(=O)C[C@@H](O)[C@@H]1/C=C/C(O)Cc1ccc2ccccc2c1` (single isomer, unassigned) [Example 21L], the IC50 in assay [1] was > 10000 nM; in assay [2], 13 nM.

For `O=C(O)CSCCCS[C@H]1C(=O)C[C@@H](O)[C@@H]1/C=C/C(O)Cc1ccc2ccccc2c1` (single isomer, unassigned) [Example 22H], the IC50 in assay [1] was > 10000 nM; in assay [2] it was 32 nM.

Turning to `COC(=O)CSCCCS[C@H]1C(=O)C[C@@H](O)[C@@H]1/C=C/C(O)Cc1csc2ccccc12` (single isomer, unassigned) [Example 24H], in assay [2], the IC50 was 200 nM.

For `COC(=O)CSCCCS[C@H]1C(=O)C[C@@H](O)[C@@H]1/C=C/C(C)(O)CCc1ccc2ccccc2c1` (single isomer, unassigned) [Example 27H], the 50% inhibitory concentration (IC50) in assay [2] amounted to 500 nM.

Regarding `COC(=O)CSCCCS[C@H]1C(=O)C[C@@H](O)[C@@H]1/C=C/C(C)(O)CCc1ccc2ccccc2c1` (single isomer, unassigned) [Example 27L], the IC50 in assay [2] was found to be 3400 nM.

For `COC(=O)CSCCCS[C@H]1C(=O)C[C@@H](O)[C@@H]1/C=C/C(O)CCc1ccc2ccccc2c1` (stereo partly drawn) [Example 9H, {3-[(1R,2S,3R)-3-Hydroxy-2-((S)-(E)-3-(hydroxy)-5-(naphthyl)pent-1-enyl)-5-oxocyclopentylsulfanyl]propylsulfanyl}acetic acid methyl ester], the IC50 in assay [2] was 40 nM.

Turning to `COC(=O)CSCCCS[C@H]1C(=O)C[C@@H](O)[C@@H]1/C=C/C(O)CCc1ccc2ccccc2c1` (stereo partly drawn) [Example 9L, {3-[(1R,2S,3R)-3-Hydroxy-2-((S)-(E)-3-(hydroxy)-5-(naphthyl)pent-1-enyl)-5-oxocyclopentylsulfanyl]propylsulfanyl}acetic acid methyl ester], the IC50 in assay [1] was > 10000 nM.

As for `COC(=O)CSCCCS[C@H]1C(=O)C[C@@H](O)[C@@H]1/C=C/[C@@H](O)CCc1cc2ccccc2s1` [Example 13H, {3-[(1R,2S,3R)-3-Hydroxy-2-((S)-(E)-3-hydroxy-5-(benzothienyl)pent-1-enyl)-5-oxocyclopentylsulfanyl]propylsulfanyl}acetic acid methyl ester], in assay [2], the IC50 stood at 91 nM.

`CC(O)(/C=C/[C@H]1[C@H](O)CC(=O)[C@@H]1SCCCSCC(=O)O)CCc1ccc2ccccc2c1` (stereo partly drawn) [Example 28H, {3-[(1R,2S,3R)-3-Hydroxy-2-((S)-(E)-3-(hydroxy)-3-(methyl)-5-(naphthyl)pent-1-enyl)-5-oxocyclopentylsulfanyl]propylsulfanyl}acetic acid]: the IC50 in assay [1] is > 10000 nM; in assay [2] it was 1700 nM.

For `CC(O)(/C=C/[C@H]1[C@H](O)CC(=O)[C@@H]1SCCCSCC(=O)O)CCc1ccc2ccccc2c1` (stereo partly drawn) [Example 28L, {3-[(1R,2S,3R)-3-Hydroxy-2-((S)-(E)-3-(hydroxy)-3-(methyl)-5-(naphthyl)pent-1-enyl)-5-oxocyclopentylsulfanyl]propylsulfanyl}acetic acid], the IC50 is > 10000 nM in assay [1] and 1500 nM in assay [2].

For the molecule `COC(=O)CSCCCS[C@H]1C(=O)C[C@@H](O)[C@@H]1/C=C/C(C)(O)Cc1ccc2ccccc2c1` (stereo partly drawn) [Example 30H, {3-[(1R,2S,3R)-3-Hydroxy-2-((E)-3-hydroxy-3-methyl-4-naphthalen-2-yl-but-1-enyl)-5-oxocyclopentylsulfanyl]propylsulfanyl}acetic acid methyl ester], the IC50 in assay [1] is > 10000 nM; in assay [2], 3100 nM.

Regarding `COC(=O)CSCCCS[C@H]1C(=O)C[C@@H](O)[C@@H]1/C=C/C(C)(O)Cc1ccc2ccccc2c1` (stereo partly drawn) [Example 30L, {3-[(1R,2S,3R)-3-Hydroxy-2-((E)-3-hydroxy-3-methyl-4-naphthalen-2-yl-but-1-enyl)-5-oxocyclopentylsulfanyl]propylsulfanyl}acetic acid methyl ester], the IC50 in assay [2] stood at 3200 nM.

Turning to `CC(O)(/C=C/[C@H]1[C@H](O)CC(=O)[C@@H]1SCCCSCC(=O)O)Cc1ccc2ccccc2c1` (stereo partly drawn) [Example 31H, {3-[(1R,2S,3R)-3-Hydroxy-2-((E)-3-hydroxy-3-methyl-4-naphthalen-2-yl-but-1-enyl)-5-oxocyclopentylsulfanyl]propylsulfanyl}acetic acid], the IC50 was 8100 nM in assay [1] and 300 nM in assay [2].

With `COC(=O)CSCCCS[C@H]1C(=O)C[C@@H](O)[C@@H]1/C=C/[C@@](C)(O)CCc1cc2ccccc2s1` [Example 33H, {3-[(1R,2S,3R)-3-Hydroxy-2-((S)-(E)-3-(hydroxy)-3-(methyl)-5-(benzothienyl)pent-1-enyl)-5-oxocyclopentylsulfanyl]propylsulfanyl}acetic acid methyl ester], the half-maximal inhibitory concentration (IC50) in assay [2] turned out to be 200 nM.

With `COC(=O)CSCCCS[C@H]1C(=O)C[C@@H](O)[C@@H]1/C=C/[C@@](C)(O)CCc1cc2ccccc2s1` [Example 33L, {3-[(1R,2S,3R)-3-Hydroxy-2-((S)-(E)-3-(hydroxy)-3-(methyl)-5-(benzothienyl)pent-1-enyl)-5-oxocyclopentylsulfanyl]propylsulfanyl}acetic acid methyl ester], in assay [2], the half-maximal inhibitory concentration (IC50) came to 300 nM.
